Data as given in US20180110754A1, “CENICRIVIROC FOR THE TREATMENT OF FIBROSIS” (Tobira Therapeutics, Inc., priority 2015, published 2018).

How the values were obtained:
APRI and FIB-4 scores = assay: Study 202 post-hoc APRI and FIB-4 fibrosis index scores; type: in vivo, human
Method: APRI and FIB-4 scores were calculated. Change in score category from baseline (BL) to Weeks 24 and 48 was assessed in patients with non-missing data. Correlations between changes from BL in APRI and FIB-4 scores, and MCP-1 (CCR2 ligand) and sCD14 (inflammatory biomarker) levels were evaluated.

[1] = Study 202: fasting metabolic laboratory parameters; type: in vivo; details: for Fasting HDL, mean change from baseline / Fasting LDL, mean change from baseline / Fasting total cholesterol, mean change from baseline / Fasting total cholesterol/HDL ratio, mean change from baseline / Fasting triglycerides, mean change from baseline / HOMA-IR, mean change from baseline / HbA1c, mean change from baseline: EFV
Text: All abnormalities in total cholesterol, LDL cholesterol, triglycerides, or glucose were Grade 1 or Grade 2.
Mean baseline values and changes from baseline in HbA1c, HOMA-IR, fasting LDL, fasting HDL, fasting total cholesterol, fasting total cholesterol/HDL ratio, and fasting triglycerides are shown in Table 36.

[2] = All CVC (N = 115), EFV (N = 28), through Week 48

SMILES: O=C1Nc2ccc(Cl)cc2[C@@](C#CC2CC2)(C(F)(F)F)O1 [EFV, efavirenz, reference compound]
- Patients in APRI category 0.5-1.5 (APRI and FIB-4 scores; Baseline): 4%
- Patients in FIB-4 category <1.45 (APRI and FIB-4 scores; Baseline): 100%
- Patients in APRI category <0.5 (APRI and FIB-4 scores; Baseline, CVC pooled 100/200 mg or EFV): 96%
- Patients in APRI category <0.5 (APRI and FIB-4 scores; Week 24): 100%
- Patients in FIB-4 category <1.45 (APRI and FIB-4 scores; Week 24): 100%
- Patients with APRI decreased 1 category from baseline (APRI and FIB-4 scores; Week 24): 5%
- Patients in APRI category <0.5 (APRI and FIB-4 scores; Week 48): 100%
- Patients in FIB-4 category 1.45-3.25 (APRI and FIB-4 scores; Week 48): 6%
- Patients in FIB-4 category <1.45 (APRI and FIB-4 scores; Week 48): 94%
- Patients with APRI decreased 1 category from baseline (APRI and FIB-4 scores; Week 48): 6%
- Any graded (Grade 1-4) fasting laboratory abnormality, n subjects [1, 2]: 9
- Fasting LDL cholesterol abnormality, any grade, n subjects [1, 2]: 6
- Fasting LDL cholesterol, worst Grade 1, n subjects [1, 2]: 3
- Fasting LDL cholesterol, worst Grade 2, n subjects [1, 2]: 3
- Fasting LDL cholesterol, worst Grade 3, n subjects [1, 2]: 0
- Fasting LDL cholesterol, worst Grade 4, n subjects [1, 2]: 0
- Fasting glucose (serum, high) abnormality, any grade, n subjects [1, 2]: 2
- Fasting glucose (serum, high), worst Grade 1, n subjects [1, 2]: 2
- Fasting glucose (serum, high), worst Grade 2, n subjects [1, 2]: 0
- Fasting glucose (serum, high), worst Grade 3, n subjects [1, 2]: 0
- Fasting glucose (serum, high), worst Grade 4, n subjects [1, 2]: 0
- Fasting laboratory abnormality, worst Grade 1, n subjects [1, 2]: 6
- Fasting laboratory abnormality, worst Grade 2, n subjects [1, 2]: 3
- Fasting laboratory abnormality, worst Grade 3, n subjects [1, 2]: 0
- Fasting laboratory abnormality, worst Grade 4, n subjects [1, 2]: 0
- Fasting total cholesterol abnormality, any grade, n subjects [1, 2]: 9
- Fasting total cholesterol, worst Grade 1, n subjects [1, 2]: 6
- Fasting total cholesterol, worst Grade 2, n subjects [1, 2]: 3
- Fasting total cholesterol, worst Grade 3, n subjects [1, 2]: 0
- Fasting total cholesterol, worst Grade 4, n subjects [1, 2]: 0
- Fasting triglycerides abnormality, any grade, n subjects [1, 2]: 0
- Fasting triglycerides, worst Grade 1, n subjects [1, 2]: 0
- Fasting triglycerides, worst Grade 2, n subjects [1, 2]: 0
- Fasting triglycerides, worst Grade 3, n subjects [1, 2]: 0
- Fasting triglycerides, worst Grade 4, n subjects [1, 2]: 0
- Fasting HDL, mean change from baseline ([1]; Week 4, All CVC): 5.90 mg/dL
- Fasting LDL, mean change from baseline ([1]; Week 4, All CVC): 8.62 mg/dL
- Fasting total cholesterol, mean change from baseline ([1]; Week 4, All CVC): 19 mg/dL
- Fasting total cholesterol/HDL ratio, mean change from baseline ([1]; Week 4, All CVC): −0.07
- Fasting triglycerides, mean change from baseline ([1]; Week 4, All CVC): 23 mg/dL
- HOMA-IR, mean change from baseline ([1]; Week 4, All CVC): 0.30
- HbA1c, mean change from baseline ([1]; Week 4, All CVC): −0.01 % Hb
- Fasting HDL, mean change from baseline ([1]; Week 12, All CVC): 9.45 mg/dL
- Fasting LDL, mean change from baseline ([1]; Week 12, All CVC): 7.59 mg/dL
- Fasting total cholesterol, mean change from baseline ([1]; Week 12, All CVC): 18 mg/dL
- Fasting total cholesterol/HDL ratio, mean change from baseline ([1]; Week 12, All CVC): −0.41
- Fasting triglycerides, mean change from baseline ([1]; Week 12, All CVC): 3 mg/dL
- HOMA-IR, mean change from baseline ([1]; Week 12, All CVC): 0.06
- HbA1c, mean change from baseline ([1]; Week 12, All CVC): −0.07 % Hb
- Fasting HDL, mean change from baseline ([1]; Week 24, All CVC): 12.75 mg/dL
- Fasting LDL, mean change from baseline ([1]; Week 24, All CVC): 13.40 mg/dL
- Fasting total cholesterol, mean change from baseline ([1]; Week 24, All CVC): 24 mg/dL
- Fasting total cholesterol/HDL ratio, mean change from baseline ([1]; Week 24, All CVC): −0.47
- Fasting triglycerides, mean change from baseline ([1]; Week 24, All CVC): -10 mg/dL
- HOMA-IR, mean change from baseline ([1]; Week 24, All CVC): −1.27
- HbA1c, mean change from baseline ([1]; Week 24, All CVC): −0.01 % Hb
- Fasting HDL, mean change from baseline ([1]; Week 48, All CVC): 11.94 mg/dL
- Fasting LDL, mean change from baseline ([1]; Week 48, All CVC): 11.19 mg/dL
- Fasting total cholesterol, mean change from baseline ([1]; Week 48, All CVC): 26 mg/dL
- Fasting total cholesterol/HDL ratio, mean change from baseline ([1]; Week 48, All CVC): −0.35
- Fasting triglycerides, mean change from baseline ([1]; Week 48, All CVC): 14 mg/dL
- HOMA-IR, mean change from baseline ([1]; Week 48, All CVC): −0.12
- HbA1c, mean change from baseline ([1]; Week 48, All CVC): −0.08 % Hb
- Change in fasting cholesterol (total, LDL, HDL) during treatment ([1]; through Week 48): increases were observed
